pIC50: −log10 of the molar value.
Legend:
[1] = test system: HCC1954 (ER/PR-, Her2+); experiment: Palbociclib sensitivity of breast cancer line; assay type: cell-based; details: Homo sapiens; HCC1954, non-responder
[2] = test system: MCF7-ALT cells; experiment: Long-term proliferation arrest at IC100 (FIG. 15A); assay type: cell-based, human; details: IC100 Palbociclib, doxycycline induced ALT, replenished every two days
Description: FIGS. 15A-15C: ALT and PD treatment increases senescence, a clinical goal. FIG. 15A: MCF7-ALT cells were treated with IC100 concentration of Palbociclib (PD) or doxycycline to induce ALT. Drugs were replenished every two days and proliferation was determined by cell counting as indicated. Proliferation rates were standardized to the rate of proliferation seen in DMSO treated cells (control). PD treated cells were arrested for 10 days, before escape (proliferation) was detected. ALT expressing cells were arrested for 18 days before escape (proliferation) was detected. ALT expressing and PD treated cells were arrested for 30 days, with no escape detected. […] Proliferation was assessed by counting. […] Viability was measured by trypan blue staining and the ALT expressing, PD treated cells that weren't growing were viable. […]
MCF7-ALT cells were treated with a IC100 concentration of Palbociclib (PD) or doxycycline to induce ALT. Drugs were replenished every two days and proliferation was determined by cell counting as indicated. […] PD treated cells were arrested for 10 days, before escape (proliferation) was detected. ALT expressing cells were arrested for 18 days before escape (proliferation) was detected. ALT expressing and PD treated cells were arrested for 30 days, with no escape detected. […] Proliferation was assessed by counting. […]

[3] = test system: MCF-7 inducible ALT cells; experiment: Mouse xenograft model, MCF7-ALT tumors; assay type: in vivo, NOD/SCID mice; details: day 17; start volume 200 mm3; Palbociclib 100 mg/kg daily gavage, doxycycline 0.1 mg/ml in drinking water
Description: FIG. 14: ALT slows tumor growth in animals, and ALT and PD dual treatment causes tumor regression. MCF-7 inducible ALT cells were injected into the 4th mammary gland of NOD/SCID mice. Tumors were allowed to develop to a volume of 200 mm3, before treatment. Vehicle: daily gavage with PBS. PD: Daily gavage of Palbociclib 100 mg/kg. Doxy: 0.1 mg/ml doxycycline added to the drinking water to allow continuous uptake and induction of ALT in the human cancer cells. Doxy+PD: Daily gavage of Palbociclib 100 mg/kg and 0.1 mg/ml doxycycline added to the drinking water. Vehicle treated animals rapidly progressed and by 17 days, tumor volumes were >3000 mm PD treatment slowed down tumor growth but by day 17, tumors were >2500. […] However, dual ALT and PD (doxy/PD) treatment, caused tumor regression by […] (e.g., from 200 mm3 down to 0-40 mm3), by day 5, which was durable up to day 19.
NP-ALT was added to cell media in the absence of fetal bovine serum for 6 hours. This media was removed and replaced with FBS+media, and cells were allowed to recover for 2 days, at which time, cell counts were determined. Counts were standardized to the proliferation seen in the NO FBS untreated control. • Expression in vivo. […] Tumor volume was monitored every other day using digital calipers. […] Doxy+PD: Daily gavage of Palbociclib 100 mg/kg and 0.1 mg/ml doxycycline added to the drinking water. • Quantitative RT-PCR. […]

CC(=O)c1c(C)c2cnc(Nc3ccc(N4CCNCC4)cn3)nc2n(C2CCCC2)c1=O [PD0332991]
pIC50 [1]: < 6.00
time arrested before escape (proliferation) [2]: 10 days
tumor volume [3]: > 2500 mm3

From patent publication US11260100B2, “Compositions targeting the interaction domain between p27Kip1 and Brk and methods of use thereof to inhibit p27 Y phosphorylation and cdk4 activity” (The Research Foundation for the State University of New York, priority 2014, dated 2022)
